{
  "source": "ChEMBL document CHEMBL4673331",
  "about": "(J Med Chem, 2020)",
  "key": {"[1]": {"experiment": "Dose normalized AUC (0 to 24 hrs) in Balb/c mouse at 3 mg/kg, po administered as cassette dosing", "format": "ADME, organism-based", "details": "in vivo"}, "[2]": {"experiment": "Half-life in Sprague-Dawley rat at 1 mg/kg, iv administered as cassette dosing", "format": "ADME, organism-based", "details": "in vivo"}, "[3]": {"experiment": "Drug concentration in Balb/c mouse blood at 30 mg/kg, po BID by LC-MS/MS analysis", "format": "ADME, organism-based", "details": "in vivo, read-out: Drug uptake"}, "[4]": {"test_system": "OCI-Ly3", "experiment": "Antiproliferative activity against human OCI-LY3 cells assessed as assessed as reduction in colony formation incubated for 14 days by soft-agar assay", "format": "functional, cell-based", "details": "dose 19.5-10000 nM, time 14.0 day"}, "[5]": {"experiment": "Intrinsic clearance in mouse liver microsome", "format": "ADME", "details": "liver microsomes, read-out: CLH"}, "[6]": {"experiment": "Dose normalized Cmax in Sprague-Dawley rat at 3 mg/kg, po administered as cassette dosing", "format": "ADME, organism-based", "details": "in vivo"}, "[7]": {"experiment": "Toxicity in Balb/c mouse assessed as histopathological changes at 10 to 100 mg/kg, po BID administered at 12 hrs interval immunized post 1 hr first treatment", "format": "organism-based", "details": "in vivo, dose 10-100 mg/kg"}, "[8]": {"target": "T1, Mucosa-associated lymphoid tissue lymphoma translocation protein 1 (Homo sapiens) (UniProt Q9UDY8)", "T1 sequence (whole entry)": "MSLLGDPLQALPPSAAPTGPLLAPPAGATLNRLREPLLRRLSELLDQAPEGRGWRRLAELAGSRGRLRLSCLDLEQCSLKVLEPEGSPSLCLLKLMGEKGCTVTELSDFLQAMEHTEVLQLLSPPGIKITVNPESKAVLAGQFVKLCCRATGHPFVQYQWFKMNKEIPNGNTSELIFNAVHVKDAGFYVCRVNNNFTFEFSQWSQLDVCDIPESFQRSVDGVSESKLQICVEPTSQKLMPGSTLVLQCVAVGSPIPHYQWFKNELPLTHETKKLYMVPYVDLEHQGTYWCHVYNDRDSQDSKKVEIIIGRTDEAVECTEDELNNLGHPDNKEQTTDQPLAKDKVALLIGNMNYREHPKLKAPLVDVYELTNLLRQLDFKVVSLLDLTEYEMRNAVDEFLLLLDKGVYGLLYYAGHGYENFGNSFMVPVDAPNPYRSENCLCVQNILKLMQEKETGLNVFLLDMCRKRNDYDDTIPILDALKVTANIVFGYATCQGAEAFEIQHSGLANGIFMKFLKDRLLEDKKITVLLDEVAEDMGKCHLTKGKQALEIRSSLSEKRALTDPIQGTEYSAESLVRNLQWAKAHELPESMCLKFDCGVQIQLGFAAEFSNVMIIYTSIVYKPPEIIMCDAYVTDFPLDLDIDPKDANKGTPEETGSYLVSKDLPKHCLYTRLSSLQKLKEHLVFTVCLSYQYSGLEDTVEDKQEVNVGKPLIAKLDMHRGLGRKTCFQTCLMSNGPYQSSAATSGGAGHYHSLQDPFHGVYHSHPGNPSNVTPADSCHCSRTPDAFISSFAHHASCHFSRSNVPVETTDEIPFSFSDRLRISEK", "experiment": "Allosteric inhibition of MALT1 protease activity in human OCI-LY3 cells assessed as accumulation of uncleaved substrate RELB incubated for 24 hrs by Western blot analysis", "format": "cell-based", "details": "OCILY3, filed as negative allosteric modulator, dose 50-5000 nM"}, "[9]": {"test_system": "TMD8", "experiment": "Antitumor activity against human TMD8 cells xenografted in SCID mouse assessed as tumor stasis at 100 mg/kg, po BID administered for 2 weeks", "format": "functional, organism-based"}, "[10]": {"experiment": "Volume of distribution at steady state in Sprague-Dawley rat at 1 mg/kg, iv administered as cassette dosing", "format": "ADME, organism-based", "details": "in vivo, read-out: Vdss"}, "[11]": {"experiment": "Toxicity in Balb/c mouse assessed as behavioral changes at 10 to 100 mg/kg, po BID administered at 12 hrs interval immunized post 1 hr first treatment", "format": "organism-based", "details": "in vivo, dose 10-100 mg/kg"}, "[12]": {"experiment": "Drug concentration in Balb/c mouse blood at 10 mg/kg, po BID administered at 12 hrs interval immunized post 1 hr first treatment measured after 12 hrs post second dose by LC-MS/MS analysis", "format": "ADME, organism-based", "details": "whole blood, read-out: Drug uptake"}, "[13]": {"test_system": "BMDM", "experiment": "Cytotoxicity against mouse Bone marrow-derived macrophage cells assessed as reduction in cell viability by [3H]-thymidine incorporation assay", "format": "cell-based"}, "[14]": {"experiment": "Oral bioavailability in Sprague-Dawley rat at 3 mg/kg administered as cassette dosing", "format": "ADME, organism-based", "details": "in vivo"}, "[15]": {"target": "T2, Mucosa-associated lymphoid tissue lymphoma translocation protein 1 (Homo sapiens, UniProt Q9UDY8)", "T2 sequence (Q9UDY8 whole entry)": "T1 sequence (whole entry)", "experiment": "Allosteric inhibition of MALT1 in human OCI-LY3 cells assessed as reduction in BCL10 cleavage measured after 24 hrs by ELISA", "format": "cell-based, OCILY3"}, "[16]": {"target": "T1, Mucosa-associated lymphoid tissue lymphoma translocation protein 1 (Homo sapiens)", "experiment": "Allosteric inhibition of MALT1 in human OCI-LY3 cells assessed as repression of IRF4 at 50 to 5000 nM incubated for 24 hrs by Western blot analysis", "format": "cell-based", "details": "OCILY3, filed as negative allosteric modulator, dose 50-5000 nM"}, "[17]": {"target": "T1, Mucosa-associated lymphoid tissue lymphoma translocation protein 1 (Homo sapiens)", "experiment": "Allosteric inhibition of MALT1 protease activity in human OCI-LY3 cells assessed as accumulation of uncleaved substrate CYLD incubated for 24 hrs by Western blot analysis", "format": "cell-based", "details": "OCILY3, filed as negative allosteric modulator, dose 50-5000 nM"}, "[18]": {"test_system": "Mus musculus", "experiment": "Anti-autoimmune disease activity in Balb/c mouse assessed as reduction in anti-DNP induced IgG producing B cells at 30 mg/kg, po administered twice at 12 hrs interval immunized post 1 hr first treatment measured after 8 days by ELISA relative to control", "format": "functional, organism-based", "details": "time 8.0 day"}, "[19]": {"experiment": "Toxicity in Balb/c mouse assessed as change in body weight at 10 to 100 mg/kg, po BID administered at 12 hrs interval immunized post 1 hr first treatment", "format": "organism-based", "details": "in vivo, dose 10-100 mg/kg"}, "[20]": {"experiment": "Drug concentration in Balb/c mouse blood at 100 mg/kg, po BID administered at 12 hrs interval immunized post 1 hr first treatment measured after 12 hrs post second dose by LC-MS/MS analysis", "format": "ADME, organism-based", "details": "whole blood, read-out: Drug uptake"}, "[21]": {"experiment": "Apparent permeability across apical to basolateral side in human Caco-2 cells", "format": "ADME, cell-based"}, "[22]": {"target": "T2, Mucosa-associated lymphoid tissue lymphoma translocation protein 1", "experiment": "Allosteric inhibition of MALT1-mediated T cell activation in human Jurkat cells assessed as decrease in PMA induced IL2 activation preincubated for 1 hr followed by addition of PMA measured after 5.5 hrs by luciferase reporter gene assay", "format": "cell-based"}, "[23]": {"experiment": "Oral bioavailability in Balb/c mouse at 3 mg/kg administered as cassette dosing", "format": "ADME, organism-based", "details": "in vivo"}, "[24]": {"experiment": "Solubility of the compound at pH 6.8", "format": "physicochemical", "details": "buffer"}, "[25]": {"experiment": "Dose normalized Cmax in Balb/c mouse at 3 mg/kg, po administered as cassette dosing", "format": "ADME, organism-based", "details": "in vivo"}, "[26]": {"experiment": "Inhibition of mixed lymphocyte reaction in human PBMC cells assessed as reduction in [3H]-thymidine incorporation measured after 5 days in presence of Il-7 by microbeta counting method", "format": "functional, cell-based"}, "[27]": {"experiment": "Volume of distribution at steady state in Balb/c mouse at 1 mg/kg, iv administered as cassette dosing", "format": "ADME, organism-based", "details": "in vivo, read-out: Vdss"}, "[28]": {"target": "T1, Mucosa-associated lymphoid tissue lymphoma translocation protein 1 (Homo sapiens)", "experiment": "Allosteric inhibition of MALT1 protease activity in human OCI-LY3 cells assessed as accumulation of uncleaved substrate […] incubated for 24 hrs by Western blot analysis", "format": "cell-based", "details": "OCILY3, filed as negative allosteric modulator, dose 50-5000 nM"}, "[29]": {"test_system": "Mus musculus", "experiment": "Immunomodulatory activity in human TMD8 cells xenografted po dosed SCID mouse assessed as increase in levels of uncleaved BCL10 in tumor administered twice daily for 2 weeks", "format": "functional, organism-based", "details": "dose mg/kg 10-100, time 2.0 weeks"}},
  "note": "Active and inactive are the calls of the source. The rule behind the calls is not given here.",
  "data": [
    {"smiles": "C[C@H]1COC[C@H](C)N1c1c(NC(=O)Nc2ccnc(C(F)(F)F)c2)cnc2cc(Cl)nn12", "values": [
      {"measurement": "AUC/dose", "setting": "[1]", "value": 3100, "unit": "nM·h"},
      {"measurement": "half-life", "setting": "[2]", "value": 3.2, "unit": "h"},
      {"measurement": "concentration", "setting": "[3]", "value": 9300, "unit": "nM"},
      {"measurement": "Activity", "setting": "[4]", "value": "Dose-dependent effect"},
      {"measurement": "microsomal CLint", "setting": "[5]", "value": 82, "unit": "µL/min/mg"},
      {"measurement": "Cmax/dose", "setting": "[6]", "value": 46, "unit": "nM"},
      {"measurement": "Activity", "setting": "[7]", "value": "Non-Toxic"},
      {"measurement": "inhibition", "setting": "[8]", "value": "Dose-dependent effect"},
      {"measurement": "Activity", "setting": "[9]", "value": "Active"},
      {"measurement": "Vd", "setting": "[10]", "value": 9.4, "unit": "L/kg"},
      {"measurement": "Activity", "setting": "[11]", "value": "Non-Toxic"},
      {"measurement": "concentration at 12 h", "setting": "[12]", "value": 40, "unit": "nM"},
      {"measurement": "IC50", "setting": "[13]", "value": "> 10", "unit": "µM"},
      {"measurement": "bioavailability", "setting": "[14]", "value": 61, "unit": "%"},
      {"measurement": "IC50", "setting": "[15]", "value": 0.16, "unit": "µM"},
      {"measurement": "inhibition", "setting": "[16]", "value": "Active"},
      {"measurement": "inhibition", "setting": "[17]", "value": "Dose-dependent effect"},
      {"measurement": "Activity", "setting": "[18]", "value": "Active"},
      {"measurement": "Activity", "setting": "[19]", "value": "Non-Toxic"},
      {"measurement": "concentration at 12 h", "setting": "[20]", "value": 690, "unit": "nM"},
      {"measurement": "Papp A→B", "setting": "[21]", "value": 1.47, "unit": "×10⁻⁶ cm/s"},
      {"measurement": "IC50", "setting": "[22]", "value": 0.18, "unit": "µM"},
      {"measurement": "bioavailability", "setting": "[23]", "value": 99, "unit": "%"},
      {"measurement": "solubility", "setting": "[24]", "value": 266, "unit": "µM"},
      {"measurement": "Cmax/dose", "setting": "[25]", "value": 549, "unit": "nM"},
      {"measurement": "IC50", "setting": "[26]", "value": 0.19, "unit": "µM"},
      {"measurement": "Vd", "setting": "[27]", "value": 1.5, "unit": "L/kg"},
      {"measurement": "inhibition", "setting": "[28]", "value": "Dose-dependent effect"},
      {"measurement": "Activity", "setting": "[29]", "value": "Dose-dependent effect"}
    ]}
  ]
}
